Experimental findings from patent publication US8236791B2, “Assays for S100 inhibitors” (Albert Einstein College of Medicine of Yeshiva University, priority 2005, dated 2012) are described below.

Test [1] concerns the target T1, S100A4 (Homo sapiens, UniProt P26447).
T1 construct: It is a chemical label, not a fused protein
Description: S100A4 biosensor (Mero-S100A4) fluorescence assay for S100A4 inhibitors. The conditions noted are these: screening assay: 5 μM S100A4 biosensor (dimer), 100 μM FDA approved drug, 0.3 mM CaCl2; controls: no addition 8475, calcium 14996, calcium + EGTA 6088. The test is classed as biochemical. The source says:
We produced and characterized a fluorescent analog of S100A4 (Mero-S100A4) that reports calcium binding, and thus serves to identify activated S100A4 (Garrett et al., 2004). To produce the S100A4 biosensor that monitors protein activation (i.e., calcium binding) Cys81 was derivatized with the ISO-IAA dye to a stoichiometry of 1:1 (FIG. 2).
Binding of the Mero-S100A4 to myosin-IIA results in only a small increase in fluorescence intensity (FIG. 3, right panel). These observations indicate that the S100A4 biosensor reports only calcium binding and not target binding. In addition, calcium binding studies indicate that mutagenesis and dye attachment have not altered the binding affinity of the labeled S100A4 for calcium (data not shown).
A total of 333 FDA approved drugs were tested for their ability to inhibit S100A4, using the biosensor described in Example 1. Screening assays used 5 μM S100A4 biosensor (dimer concentration), 100 μM FDA approved drug, buffer: 50 mM Tris-HCl, pH 7.5, 150 mM NaCl, 0.3 mM CaCl2, 0.02% NaN3, 1 mM DTT, 10% DMSO. […] 100 μl assay volume.

In test [2] the target is T1, S100A4. Described as above. The conditions noted are these: 5 μM S100A4 biosensor, 0-400 μM small molecule inhibitor, 0.3 mM CaCl2 buffer. Type of test: biochemical.

T1 sequence (P26447 whole entry C3A/C76A/C86A, form open, the tested form may be a part): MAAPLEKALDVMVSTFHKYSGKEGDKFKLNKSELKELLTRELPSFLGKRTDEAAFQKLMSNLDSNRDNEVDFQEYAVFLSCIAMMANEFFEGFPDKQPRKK

`CC(C)COCC(CN(Cc1ccccc1)c1ccccc1)N1CCCC1` (stereo not drawn) [bepridil]: the “Arbitrary Fluorescence Units” value on S100A4 [1] is 6954 Arbitrary Fluorescence Units. Also, at S100A4 [2], the midpoint of inhibition, the IC50, lay at 35 µM. The matching figures for `CN(C)CC/C=C1/c2ccccc2Sc2ccc(Cl)cc21` [chlorprothixene]: 7977 Arbitrary Fluorescence Units and 145 µM. Turning to `CN(C)CCCN1c2ccccc2CCc2ccc(Cl)cc21` [clomipramine], the “Arbitrary Fluorescence Units” value on S100A4 [1] was 7898 Arbitrary Fluorescence Units. 133 µM corresponded to half-maximal inhibition on S100A4 [2] (IC50). Consider `CN1CCC(=C2c3ccccc3C=Cc3ccccc32)CC1` [cyproheptadine], for which the IC50 against S100A4 [2] was found to be 256 µM. Turning to `OCCN1CCN(CC/C=C2/c3ccccc3Sc3ccc(C(F)(F)F)cc32)CC1` [flupenthixol-cis], the “Arbitrary Fluorescence Units” value at S100A4 [1] is given as 6449 Arbitrary Fluorescence Units. Further, at S100A4 [2], inhibition was half-maximal at 59 µM (IC50). The matching figures for `OCCN1CCN(CCCN2c3ccccc3Sc3ccc(C(F)(F)F)cc32)CC1` [fluphenazine]: 6908 Arbitrary Fluorescence Units and 46 µM.

In the case of `CC(=O)N1CCN(c2ccc(OCC3COC(Cn4ccnc4)(c4ccc(Cl)cc4Cl)O3)cc2)CC1` (stereo not drawn) [ketoconazole], the “Arbitrary Fluorescence Units” value on S100A4 [1] is reported as 7759 Arbitrary Fluorescence Units. For the same compound, the half-maximal inhibitory concentration (IC50) against S100A4 [2] turned out to be 23 µM. The matching figures for `CN(C)C(=O)C(CCN1CCC(O)(c2ccc(Cl)cc2)CC1)(c1ccccc1)c1ccccc1` [loperamide]: 3820 Arbitrary Fluorescence Units and 18 µM. Regarding `OCCN1CCN(CCCN2c3ccccc3Sc3ccc(Cl)cc32)CC1` [perphenazine], the “Arbitrary Fluorescence Units” value at S100A4 [1] is 7399 Arbitrary Fluorescence Units. Further, half-maximal inhibition on S100A4 [2] (IC50) required 164 µM. As for `CN1CCN(CCCN2c3ccccc3Sc3ccc(Cl)cc32)CC1` [prochlorperazine], the “Arbitrary Fluorescence Units” value on S100A4 [1] was 5505 Arbitrary Fluorescence Units. This compound also gave an IC50 at S100A4 [2] of 33 µM. Turning to `CN1CCN(CCCN2c3ccccc3Sc3ccc(C(F)(F)F)cc32)CC1` [trifluoperazine], the “Arbitrary Fluorescence Units” value at S100A4 [1] is 7939 Arbitrary Fluorescence Units. Besides, inhibition on S100A4 [2] was half-maximal at 34 µM (IC50).

What is called IC50 is the point on the concentration scale where inhibition reaches its midpoint.
